Results as given in US20260226048A1, “MULTI-CYCLIC IRAK AND FLT3 INHIBITING COMPOUNDS AND USES THEREOF” (CHILDREN'S HOSPITAL MEDICAL CENTER, priority 2023, published 2026).
pIC50: −log10 of the molar value. Read-outs that look alike come from different tables or passages of the source.

Experiments:
[1] = tested on: MOLM14-D835Y cells (FLT3-ITD (D835Y) mutant); experiment: Combination drug screening with venetoclax in MOLM14 (D835Y) cells (Cell Titre Glo, 10 × 10); type: cell-based; design: Excess HSA (sum excess HSA score, combination with venetoclax): scale not given here; details: for Excess HSA (sum excess HSA score, combination with venetoclax): 10 × 10 dataset, Cell Titre Glo at 48 hours, optimal of 4 dose combinations, negative = synergy; for Concentration of a compound of the disclosure, or gilteritinib, needed to decrease the 62.5 nM Ven response to <10% in MOLM14(D835Y) cells: combination with 62.5 nM Venetoclax, Cell Titer Glo, 48 hours, response <10%
Method: These assays were performed using the Cell Titre Glo assay, measured at 48 hours.
A smaller concentration indicates higher potency to synergize with Venetoclax.

[2] = tested on: NF-κB-inducible SEAP reporter in THP-1-Blue NF-κB cells; experiment: NF-kB SEAP reporter assay in THP-1-Blue NF-κB cells; type: cell-based; details: 24 hours
In short: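 Cells (1×10^5/well) stimulated with Pam3CSK4 (1 ng/mL) or hIL1B (1 ng/mL), then after 10-20 min given 10-point 1:10 compound dilutions from 1 μM or 3 μM for 24 h at 37° C. Secreted SEAP in supernatant read with QUANTI-Blue (30-60 min, 37° C) at 620 nm.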

[3] = THP-1-Blue NF-κB cells stimulated with Pam3CSK4 (1 ng/mL), read-out: NF-κB Pam3SCK4 IC50
[4] = THP-1-Blue NF-κB cells stimulated with hIL1B (1 ng/mL), read-out: NF-κB IL1B IC50

Compound | Excess HSA (sum excess HSA score, combination with venetoclax) [1] | Concentration of a compound of the disclosure, or gilteritinib, needed to decrease the 62.5 nM Ven response to <10% in MOLM14(D835Y) cells [1] [nM] | pIC50 [2, 3] | pIC50 [2, 4]
COc1cc2ncc(-c3nc(N[C@@H]4CCCNC4)ncc3F)n2nc1C1CC2(CCC2)C1 [Compound 59a, (R)-5-fluoro-4-(7-methoxy-6-(spiro[3.3]heptan-2-yl)imidazo[1,2-b]pyridazin-3-yl)-N-(piperidin-3-yl)pyrimidin-2-amine] | −1911 | 12.5 | 6.60 | 6.49
COc1cc2ncc(-c3nc(N[C@H]4CNCC[C@@H]4F)ncc3F)n2nc1C1CC2(CCC2)C1 [Compound 60a, 5-fluoro-N-((3S,4S)-4-fluoropiperidin-3-yl)-4-(7-methoxy-6-(spiro[3.3]heptan-2-yl)imidazo[1,2-b]pyridazin-3-yl)pyrimidin-2-amine] | −1497.3117 | 25 | 6.81 | 6.70
